Results from PMC6522510 (Nature Communications, 2019).
Like-named read-outs stand apart in the source and are kept apart here.

Assays:
Set-up in all cases: species or system AML cell lines (8); Primary HTS, single concentration about 10 uM, Cell Titer Glo viability; log10 luminescence, per cent inhibition relative to cycloheximide control
Conditions in all cases: 72 h, inhibitor
CHRF288-11 = system: CHRF288-11
CMK = system: CMK
CMS = system: CMS
M07e = system: M07e
ML-2 = system: ML-2
MOLM-13 = system: MOLM-13
MV4-11 = system: MV4-11
U937 = system: U937
[1] = relative to cycloheximide control, log10 luminescence

SMILES | CHRF288-11 %inh (CHRF288-11; [1]) [%] | CMK %inh (CMK; [1]) [%] | CMS %inh (CMS; [1]) [%] | M07e %inh (M07e; [1]) [%] | ML-2 %inh (ML-2; [1]) [%] | MOLM-13 %inh (MOLM-13; [1]) [%] | MV4-11 %inh (MV4-11; [1]) [%] | U937 %inh (U937; [1]) [%] | CHRF288-11 %inh (CHRF288-11; 10 µM) [%] | CMK %inh (CMK; 10 µM) [%] | CMS %inh (CMS; 10 µM) [%] | M07e %inh (M07e; 10 µM) [%] | ML-2 %inh (ML-2; 10 µM) [%] | MOLM-13 %inh (MOLM-13; 10 µM) [%] | MV4-11 %inh (MV4-11; 10 µM) [%] | U937 %inh (U937; 10 µM) [%]
CN1CCC(n2cnc(-c3ccc(F)cc3)c2-c2ccnc(NCCO)n2)CC1 [SJ000573246-1, TG19207-178A1] | 13.91 | 15.99 | -0.04607 | 3.039 | 6.134 | 21.36 | 13.81 | 1.73 | – | – | – | – | – | – | – | –
c1ccc(Cc2nc3ccc(Nc4ncnc5ccccc45)cc3[nH]2)cc1 [SJ000573247-1, C3072/110/1] | 3.355 | -4.013 | 0.8443 | 0.8889 | 2.215 | 6.702 | 1.262 | -1.321 | – | – | – | – | – | – | – | –
COc1ccc2cc(-c3c(-c4ccncc4)nc(-c4ccc([S+](C)[O-])cc4C)n3C)ccc2c1 (stereo not shown) [SJ000573248-1, NJ44157-082A1] | 5.983 | 1.35 | 2.672 | 7.477 | 0.217 | 2.934 | 7.703 | 1.089 | – | – | – | – | – | – | – | –
CNC(=O)c1cncc(/C=C/c2c(C)cccc2C)c1 [SJ000573249-1, U12068/55/2] | 2.946 | 2.958 | 2.842 | 6.499 | 1.303 | 0.7031 | 1.251 | -0.6106 | – | – | – | – | – | – | – | –
FC(F)(F)c1cccc(Nc2nccc(-c3cnn4nc(-c5ccccc5)ccc34)n2)c1 [SJ000573250-1, U17838/151/2] | 8.085 | 0.1975 | 3.035 | 2.996 | -0.4365 | 2.078 | 3.227 | -0.9941 | – | – | – | – | – | – | – | –
NC(=O)c1ccc(-c2nc(-c3ccccn3)c(-c3ccc4c(c3)OCO4)[nH]2)cc1 [SJ000573251-1, TH48888-160A1] | 1.837 | 9.718 | 1.606 | 3.715 | 2.652 | 3.34 | 2.981 | -1.697 | – | – | – | – | – | – | – | –
Fc1cccc(COc2ccc(Nc3ncnc4cc(-c5ccc[nH]5)sc34)cc2Cl)c1 [SJ000573252-1, U16950/26/1] | 1.14 | 115.2 | 15.37 | 5.221 | 17.93 | 14.24 | 9.963 | 11.09 | – | – | – | – | – | – | – | –
COc1ccccc1-c1cc(/C=C2\C(=O)Nc3ncc(Br)cc32)cc(Br)c1O [SJ000573253-1, U16719/161/1] | -3.427 | 2.536 | -1.153 | 2.858 | 1.918 | -1.113 | 0.2955 | -3.171 | – | – | – | – | – | – | – | –
OCc1ccc(-c2nc(-c3ccc4c(c3)OCO4)c(-c3ccccn3)[nH]2)cc1 [SJ000573254-1, FH98924-116A1] | -3.015 | -1.373 | 0.5352 | 0.7981 | 2.365 | 0.3005 | -0.8385 | -3.528 | – | – | – | – | – | – | – | –
COc1cc2ncn(-c3cc(OCc4cccs4)c(C(N)=O)s3)c2cc1OC [SJ000573255-1, U21051/7/15] | 6.199 | -3.278 | 9.159 | 12.77 | 24.59 | 63.69 | 6.732 | 17.16 | – | – | – | – | – | – | – | –
CC1=C(C(=O)Nc2ccc3[nH]ncc3c2)C(c2ccc(Cl)c(Cl)c2)CC(=O)N1 (stereo not shown) [SJ000573256-1, SD205340-087A3] | 13.93 | 25.41 | 3.826 | 6.129 | 6.91 | 0.01758 | 13.75 | 2.616 | – | – | – | – | – | – | – | –
C[C@@H](Oc1cc(-n2cnc3ccc(OCC4CCN(C)CC4)cc32)sc1C(N)=O)c1ccccc1C(F)(F)F [SJ000573257-1, U20395/196/2] | 130.5 | 97.6 | 75.53 | 98.02 | 59.84 | 108.4 | 86.97 | 73.66 | – | – | – | – | – | – | – | –
CNC(=O)c1cncc(/C=C/c2c(Cl)cccc2Cl)c1 [SJ000573258-1, U12068/57/2] | -0.5271 | 4.903 | 3.911 | 7.169 | -0.3801 | 2.751 | 3.453 | 3.831 | – | – | – | – | – | – | – | –
COc1ccc(Nc2ncc(-c3ccccc3)o2)cc1OC [SJ000573259-1, U14961/58/1] | -4.817 | 5.775 | 0.9883 | 6.596 | 4.567 | 83.48 | 88.15 | -1.171 | – | – | – | – | – | – | – | –
Fc1ccc(-c2nn3ccccc3c2-c2ccncc2)cc1 [SJ000573260-1, U11781/145/5] | -2.859 | 8.765 | -2.539 | 0.2861 | -1.762 | 0.1728 | 4.558 | 4.651 | – | – | – | – | – | – | – | –
CCn1c(-c2nonc2N)nc2c(N3CCCC3)nccc21 [SJ000573261-1, DW100508-128A1] | 2.981 | 3.861 | 5.321 | 5.656 | 3.187 | 1.048 | 6.029 | -1.967 | – | – | – | – | – | – | – | –
Fc1cccc(COc2ccc(Nc3ncncc3C#Cc3ccccc3)cc2Cl)c1 [SJ000573262-1, U15872/50/1] | -1.921 | -0.522 | -2.059 | -0.005299 | 1.8 | -0.1156 | 1.812 | 1.725 | – | – | – | – | – | – | – | –
COc1cc(/C=N/Nc2ncnc3[nH]ncc23)ccc1O [SJ000573263-1, U15117/8/1] | 2.923 | 1.246 | 3.056 | 4.954 | 0.3724 | 34.62 | 32.98 | 2.504 | – | – | – | – | – | – | – | –
CCN1CCC(CC(=O)Nc2n[nH]c3nc(-c4cccs4)c(Br)cc23)CC1 [SJ000573264-1, AG201339-025C2] | 10.8 | 18.01 | 7.013 | 7.209 | -1.837 | 8.584 | 29.41 | 1.142 | – | – | – | – | – | – | – | –
CCOc1ccc2c(-c3ccnc(Nc4cccc(C(F)(F)F)c4)n3)cnn2n1 [SJ000573265-1, U17838/110/3] | 2.566 | -2.107 | 0.8077 | 6.84 | 2.429 | 1.961 | 2.829 | -3.226 | – | – | – | – | – | – | – | –
COC(=O)Nc1nc2cc(Oc3ccc(NC(=O)Nc4cccc(Br)c4)cc3)ccc2[nH]1 [SJ000573266-1, T261/62/3] | 12.69 | 40.21 | 26.73 | 12.78 | 3.598 | 76.65 | 65.99 | 79.03 | – | – | – | – | – | – | – | –
COc1cc(/C=N/Nc2ncnc3c2cnn3C(C)C)ccc1O [SJ000573267-1, T237/25/6] | – | – | – | – | – | – | – | – | 29.61 | 41.95 | 9.426 | 6.424 | 8.895 | 52.9 | 40.62 | 8.888
O=C1NC(=O)C(N2CCc3ccccc32)=C1c1ccc(Cl)cc1 [SJ000573268-1, DH97836-102A1] | 52.52 | 4.78 | -3.009 | -0.7324 | -0.2823 | 0.0382 | 95.01 | 0.6171 | – | – | – | – | – | – | – | –
